Results published in patent US20160243056A1, “Sustained Release Formulations Containing Methylglyoxal and Their Therapeutic Applications” (priority 2013, published 2016).
Where two headings read alike, the source gives them in different places.

Experiments:
[1] = system: Mitochondrial Complex I; conditions: cited from earlier work
[2] = system: sarcoma-180 cells; test: Measurement of tumor volume, Sarcoma-180 tumour in left hind leg of mice; assay type: in vivo, Swiss albino female mice; conditions: bare methylglyoxal 20 mg/kg body weight/day iv, five days a week
Experimental: In the present invention, effect of modified nanomethylGlyoxal, against tumor in mice, have been studied. Briefly, Swiss albino female mice aged 4-6 weeks weighing 18-20 g were taken. Each group contained four mice. Tumors were developed in the left hind leg of a mouse by intra-muscular injection of sarcoma-180 cells (approximately 2×10^6 cells in each mouse). Each set of experiment was repeated 4 times. Drug was administered to the mice intravenously, five days a week. Polymer conjugated methylglyoxal (Nano-MG) was administered intravenously at an amount of 0.4 mg/kg body weight/day. One group received bare methylglyoxal (20 mg/kg body weight/day). Drug was administered after 72 hours of inoculation of Sarcoma-180 tumour in the treated group. Treatment was continued for four weeks.

[3] = system: peritoneal macrophages; test: Superoxide anion generation (production of reduced NBT) by peritoneal macrophages; assay type: in vivo, mice; conditions: bare MG 20 mg/kg body weight/day iv
Experimental: Values in the bracket denote dose at mg/kg body wt/day • Ehrlich ascites carcinoma (EAC) cells developed in the intraperitoneal cavity of mouse were collected in different time intervals. After washing with normal saline the cells were re-suspended in phosphate buffered saline. […] Number of Sarcoma-180 cells inoculated to each mouse was 1×10^6. The tumor bearing mice were treated with modified nano-methylglyoxal (present formulation) in normal saline through intravenous route to study the tumor growth inhibition by nano-methylglyoxal. Treatment started after 7 days of inoculation in mice intravenously with 50 μl nanoMG in solution (containing 5 μg methylglyoxal). Mice in the negative control group were similarly treated intravenously with normal saline and the positive control groups were treated intravenously with bare methylglyoxal (20 mg/kg body weight/day) in normal saline. Each group contained six mice. Each set of experiment was repeated four times. melatonin (0.25 mg/kg body weight/day), creatine (150 mg/kg body weight/day) and Ascorbic acid (50 mg/kg body weight/day) were fed orally to each mouse everyday. Treatment was given with single daily dose for consecutive 12 days. […] Treatment started after 7 days of inoculation in mice intravenously with 50 μl nanoMG in solution (containing 5 μg methylglyoxal). Treatment was continued for 20 doses (six doses per week) in 23 days. […]

[4] = system: Sarcoma-180 cells; conditions: sarcoma-180 cells injected concomitantly with Methylglyoxal; cited from earlier work
[5] = system: peritoneal macrophages; test: Peritoneal macrophage count in treated mice; assay type: in vivo; conditions: for Peritoneal macrophage Count (×10^6): bare MG 20 mg/kg body weight/day iv
Experimental: Values in the bracket denote dose at mg/kg body wt/day • Ehrlich ascites carcinoma (EAC) cells developed in the intraperitoneal cavity of mouse were collected in different time intervals. After washing with normal saline the cells were re-suspended in phosphate buffered saline. […] Number of Sarcoma-180 cells inoculated to each mouse was 1×10^6. The tumor bearing mice were treated with modified nano-methylglyoxal (present formulation) in normal saline through intravenous route to study the tumor growth inhibition by nano-methylglyoxal. Treatment started after 7 days of inoculation in mice intravenously with 50 μl nanoMG in solution (containing 5 μg methylglyoxal). Mice in the negative control group were similarly treated intravenously with normal saline and the positive control groups were treated intravenously with bare methylglyoxal (20 mg/kg body weight/day) in normal saline. Each group contained six mice. Each set of experiment was repeated four times. melatonin (0.25 mg/kg body weight/day), creatine (150 mg/kg body weight/day) and Ascorbic acid (50 mg/kg body weight/day) were fed orally to each mouse everyday. Treatment was given with single daily dose for consecutive 12 days. […] Treatment started after 7 days of inoculation in mice intravenously with 50 μl nanoMG in solution (containing 5 μg methylglyoxal). Treatment was continued for 20 doses (six doses per week) in 23 days. Melatonin (0.25 mg/kg body weight/day), creatine (150 mg/kg body weight/day) and Ascorbic acid (50 mg/kg body weight/day) were fed orally to each mouse. • d) Solid tumor bearing mice treated with nanoMG as described previously were sacrificed for the isolation of macrophages. Briefly, RPMI-1640 was injected in the peritoneal cavity of mouse and peritoneal macrophages were isolated and centrifuged and resuspended in RPMI-1640+10% FBS and used further for immunomodulatory studies. […] In the present invention, effect of modified nanomethylGlyoxal, against tumor in mice, have been studied. Briefly, Swiss albino female mice aged 4-6 weeks weighing 18-20 g were taken. Each group contained four mice. […]

[6] = system: Ehrlich ascites carcinoma (EAC) cells; test: Tumor growth inhibition of EAC cells inoculated intraperitoneally in mice (Trypan Blue cell count); assay type: in vivo
Experimental: The Effect of Nano-Methylglyoxal on the Excessive Proliferation of Cancerous Cells in Mice was Investigated as Follows: • a) Mice bearing Ehrlich ascites carcinoma cells (No. of EAC cell inoculated each mouse=1×10^6) were treated intravenously with nano-methylglyoxal in normal saline to observe the effect of cell proliferation. Treatment started after 24 hrs, of inoculation in mice intravenously with three different doses of nanoMG in solution. In first group every day each mouse received 25 μl nanoMG solution (containing 2.5 μg methylglyoxal), in second group each mouse received 50 μl nanoMG solution (containing 5 μg methylglyoxal) and in third group each mouse received 100 μl nanoMG solution (containing 10 μg methylglyoxal). Mice in the negative control group were similarly treated intravenously with normal saline and the positive control groups were treated intravenously with bare methylglyoxal (20 mg/kg body weight/day) in normal saline. Each group contains six mice. Each set of experiment was repeated four times. Melatonin (0.25 mg/kg body weight/day), creatine (150 mg/kg body weight/day) and Ascorbic acid (50 mg/kg body weight/day) were fed orally to each mouse. Treatment was continued for consecutive 8 days (Table-5, Table-6). […]

[7] = system: Glyceraldehyde-3-Phospahte Dehydrogenase; conditions: cited from earlier work
[8] = system: Ehrlich Ascites Carcinoma (EAC) cells; test: Oral Melatonin on EAC cells implanted intra-peritoneally in female mice; assay type: in vivo; conditions: Melatonin 50 mg/kg body wt.
From the text: With these rationales, Melatonin has been applied to treat cancer in both animal and human in our laboratory and has shown significant improvement over the formulations without Melatonin. […] The effects of oral supplementation of Melatonin on growth of Ehrlich Ascites Carcinoma (EAC) cells implanted intra-peritoneally in female mice were studied in our lab. […] It has strong antioxidant properties and anticancer and onco-static action. Melatonin has potential anticancer activity whether given alone or in association with cancer chemotherapy. […] In this study, 30 patients with untreatable metastatic solid tumors were treated with daily 30 mg oral Melatonin in conjunction with low doses of antitumor cytokines. […] In addition Melatonin may have other biological effects, which could be useful in palliative therapy of Cancer.

[9] = system: Sarcoma; test: Sarcoma-bearing mice: Creatine content, CK activity and tumor size; assay type: in vivo
From the text: We also investigated the status of Creatine and CK in a few post-operative tissue samples from human patients, and similar to the results of animal tissues, the Creatine content and CK activity were much reduced in both human Fibrosarcoma and Gastro-Intestinal Tract Malignancy, compared to healthy control tissues.

[10] = system: L1236; conditions: cited from earlier work

SMILES: CC(=O)C=O [Bare-methylglyoxal, Methylglyoxal]
- Enzyme inhibition ([1]; enzyme of malignant cells): inhibits
- Enzyme inhibition ([1]; enzyme of normal cells): no inhibitory effect
- Sarcoma-180 + Bare-MG Volume of tumour (c.c.) ([2]; day 12): 1 ± 0.1 c.c.
- Sarcoma-180 + Bare-MG Volume of tumour (c.c.) ([2]; day 16): 1.4 ± 0.05 c.c.
- Sarcoma-180 + Bare-MG Volume of tumour (c.c.) ([2]; day 21): 2 ± 0.15 c.c.
- Sarcoma-180 + Bare-MG Volume of tumour (c.c.) ([2]; day 26): 2 ± 0.17 c.c.
- Sarcoma-180 + Bare-MG Volume of tumour (c.c.) ([2]; day 31): 2.73 ± 0.27 c.c.
- Superoxide anion generation Production of reduced NBT ([3]; normal mice): 243 ± 2.82 µmol
- Superoxide anion generation Production of reduced NBT ([3]; sarcoma tumour bearing mice): 317.5 ± 10.60 µmol
- Tumor development [4]: No tumor developed
- Macrophage count increase with respect to untreated tumour bearing batch ([5]; bare-MG treated mice (20 mg/kg/day iv)): two fold in bare-MG treated mice
- Peritoneal macrophage Count (×10^6) ([5]; normal mice): 10.88 ± 1.15 ×10^6
- Peritoneal macrophage Count (×10^6) ([5]; sarcoma tumour bearing mice): 12.91 ± 1.46 ×10^6
- No. of cells on day 9 ([6]; Bare-methylglyoxal 20 mg/kg body weight/day iv, 8 consecutive doses from day 1, in million cells): 29 ± 2.9
- Enzyme inhibition ([7]; enzyme of malignant cells): inhibits
- Enzyme inhibition ([7]; enzyme of normal cells): no inhibitory effect

SMILES: COc1ccc2[nH]cc(CCNC(C)=O)c2c1 [Melatonin]
- Survival of the treated mice [8]: increased the survival
- Viability and volume of Ehrlich Ascites Carcinoma cells [8]: reduced the viability and volume
- Effect of introducing melatonin on tumor growth inhibition of EAC cells ([6]; melatonin in combination with ascorbic acid and creatine, with modified NanoMG): 2. Efficacy is enhanced further when melatonin is introduced in combination with ascorbic acid and creatine for tumor growth inhibition of EAC cells in mice

SMILES: CN(CC(=O)O)C(=N)N [Creatine]
- Effect of Creatine administration on the effect of Methylglyoxal and Ascorbic Acid [9]: significantly augmented

SMILES: NC1=NCCN1CC(=O)O [Cyclocreatine, cyclocreatine]
- Inhibition of proliferation [10]: nearly entirely
